Assay results published in patent publication US20100120715A1, “BETA-LACTAMASE INHIBITORS” (priority 2007, published 2010).
Where two headings read alike, the source gives them in different places.

Assays:
[1] = biological target: T1, Class A carbapenemase KPC-2 (Klebsiella pneumoniae, UniProt Q9F663); experiment: β-lactamase enzyme inhibition (nitrocefin hydrolysis), KPC-2; type: biochemical; details: purified enzyme; nitrocefin 100 μM, PBS pH 7.0; read-out: KPC-2 IC50 Range
T1 construct: made in house; host or cells: E. coli BL21(DE3)
Outline: (§1)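 Native untagged enzymes were expressed in E. coli BL21(DE3) and purified by cation exchange and gel filtration. Compound series (100–0.005 μM in PBS pH 7.0, before addition of an equal enzyme volume) were preincubated with enzyme 10 min at 37°C. Nitrocefin (100 μM final) hydrolysis was read kinetically at 486 nm for 10 min, and IC50 was taken as 50% reduction of initial rate versus no-inhibitor wells.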

[2] = tested on: E. coli expressing the Class A ESBL SHV-5; experiment: microbe, parasite or virus in culture; type: cell-based; details: in the presence of fixed 8 μg/mL Ceftazidime
Text: (§2) To determine the ability of test compounds to potentiate the inhibition of the growth of bacterial strains producing beta-lactamase enzymes, classic cell based screening assays were employed. Four bacteria strains producing beta-lactamase enzymes were used: K. pneumoniae expressing the Class A Extended Spectrum Beta-Lactamase (ESBL) CTX-M-15, E. coli expressing the Class A ESBL SHV-5, E. cloacae expressing the Class C P99+, and K. pneumoniae expressing the Class A carbapenemase KPC-2. In order to evaluate the ability of test compounds to inhibit beta-lactamase activity, Applicants used a modification of the broth microdilution assay. The assay was conducted in Cation Adjusted Mueller Hinton Broth (CAMHB, BD # 212322, BD Diagnostic Systems, Sparks, Md.). Bacteria strains were grown for 3-5 hours in CAMBH broth. All four strains were grown in presence of 50 μg/mL ampicillin to ensure resistance is maintained. In the meantime, test compounds were diluted in DMSO to a 0.1 mg/mL stock. The compounds were added to a microtiter plate and were diluted in 2-fold serial dilutions in CAMHB in a final concentration range of 8 μg/mL to 0.015 μg/ml. An overlay of CAMHB containing a cephalosporin was added to the compounds at a final static concentration of 8 μg/ml. […] Each of these compound plates are made in quadruplicate, one for each bacteria strain. In addition to the titration of test compounds the MICs of a panel of cephalosporins is also tested to ensure the strains are behaving consistently from test to test. Once the test compound and cephalosporin are added the plates can be inoculated. Inocula are conducted according to CLSI broth microdilution method. After inoculation the plates are incubated for 16-20 hours at 37° C. then the Minimal Inhibitory Concentration (MIC) of the test compound is determined visually.

[3] = biological target: T2, Class A ESBL SHV-5 (Klebsiella pneumoniae, UniProt P0A3M1); type: biochemical, E. coli; details: nitrocefin 100 μM, PBS pH 7.0, read-out: SHV-5 IC50 Range
T2 construct: made in house; host or cells: E. coli BL21(DE3) for purified enzyme; E. coli cells containing SHV-5 for extracts

[4] = biological target: T3, Class C P99 AmpC (Enterobacter cloacae, UniProt P05364); type: biochemical; details: purified enzyme; nitrocefin 100 μM, PBS pH 7.0; read-out: P99 AmpC IC50 Range
T3 construct: made in house; host or cells: E. coli BL21(DE3)
Outline: as §1

[5] = tested on: K. pneumoniae expressing the Class A carbapenemase KPC-2; experiment: microbe, parasite or virus in culture; details: in the presence of fixed 8 μg/mL Ceftazidime
[6] = biological target: T4, Class A ESBL CTXM-15 (Escherichia coli, UniProt Q9EXV5); experiment: β-lactamase enzyme inhibition (nitrocefin hydrolysis), CTXM-15; type: biochemical; details: purified enzyme; nitrocefin 100 μM, PBS pH 7.0; read-out: CTXM-15 IC50 Range
T4 construct: made in house; host or cells: E. coli BL21(DE3)
Outline: as §1

[7] = tested on: K. pneumoniae expressing the Class A ESBL CTX-M-15; experiment: microbe, parasite or virus in culture; type: cell-based; details: in the presence of fixed 8 μg/mL Ceftazidime
[8] = tested on: E. cloacae expressing the Class C P99+ AmpC; experiment: microbe, parasite or virus in culture; type: cell-based; details: in the presence of fixed 8 μg/mL Ceftazidime
Text: as §2

[9] = purified beta-lactamase enzyme (Examples 1 and 31-64)
[10] = cellular extracts of E. coli containing SHV-5 (Examples 2-30)

T1 sequence (Q9F663 25-293 limits assumed): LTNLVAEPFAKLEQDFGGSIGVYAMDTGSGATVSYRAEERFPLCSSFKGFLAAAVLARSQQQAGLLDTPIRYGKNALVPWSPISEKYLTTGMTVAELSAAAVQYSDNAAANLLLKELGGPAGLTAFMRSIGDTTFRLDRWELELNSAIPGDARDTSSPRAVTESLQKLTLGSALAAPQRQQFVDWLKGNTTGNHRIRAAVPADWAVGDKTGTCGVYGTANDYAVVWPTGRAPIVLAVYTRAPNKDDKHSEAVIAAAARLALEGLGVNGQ
T2 sequence (P0A3M1 22-286): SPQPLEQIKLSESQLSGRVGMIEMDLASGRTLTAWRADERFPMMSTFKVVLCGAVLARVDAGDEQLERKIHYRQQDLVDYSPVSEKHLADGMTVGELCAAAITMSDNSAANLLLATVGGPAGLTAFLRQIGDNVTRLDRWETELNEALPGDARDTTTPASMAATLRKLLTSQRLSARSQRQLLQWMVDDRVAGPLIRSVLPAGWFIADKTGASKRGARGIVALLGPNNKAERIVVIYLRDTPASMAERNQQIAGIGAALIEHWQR
T4 sequence (Q9EXV5 entry or part of it): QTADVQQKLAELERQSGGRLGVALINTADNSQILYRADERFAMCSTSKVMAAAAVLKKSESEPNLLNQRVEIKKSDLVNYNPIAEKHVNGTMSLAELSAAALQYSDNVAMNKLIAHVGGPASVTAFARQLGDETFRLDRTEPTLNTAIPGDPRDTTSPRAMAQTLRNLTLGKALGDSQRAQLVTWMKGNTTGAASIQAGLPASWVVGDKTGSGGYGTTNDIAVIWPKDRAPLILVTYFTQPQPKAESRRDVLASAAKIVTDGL
T3 sequence (P05364 21-381): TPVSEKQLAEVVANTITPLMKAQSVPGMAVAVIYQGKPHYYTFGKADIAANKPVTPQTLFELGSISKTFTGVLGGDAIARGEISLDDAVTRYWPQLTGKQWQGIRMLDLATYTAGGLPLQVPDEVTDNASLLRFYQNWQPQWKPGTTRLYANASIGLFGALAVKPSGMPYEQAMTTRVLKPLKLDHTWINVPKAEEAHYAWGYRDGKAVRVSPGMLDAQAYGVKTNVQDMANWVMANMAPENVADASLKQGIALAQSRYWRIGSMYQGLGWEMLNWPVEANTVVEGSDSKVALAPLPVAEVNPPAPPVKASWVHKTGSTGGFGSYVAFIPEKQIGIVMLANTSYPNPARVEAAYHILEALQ

Compound	IC50 [1] [nM]	MIC of example compound, E. coli SHV-5 + 8 μg/mL CAZ [2]	IC50 [3, 9] [nM]	IC50 [4] [nM]	MIC of example compound, K. pneumoniae KPC-2 + 8 μg/mL CAZ [5]	IC50 [6] [nM]	MIC of example compound, K. pneumoniae CTX-M-15 + 8 μg/mL CAZ [7]	MIC of example compound, E. cloacae P99 AmpC + 8 μg/mL CAZ [8]	IC50 [3, 10] [nM]
O=C(Cc1cccs1)N[C@@H](Cc1cccc(C(=O)O)c1O)B(O)O [Example 1, (1R)-1-(2-thiophene-2-yl-acetylamino)-2-(2-hydroxy-3-carboxyphenyl)ethyl-1-boronic acid]	< 10	C (C represents an MIC of <1 μg/mL)	< 10	< 10	C (C represents an MIC of <1 μg/mL)	< 10	C (C represents an MIC of <1 μg/mL)		
O=C(Cc1cccs1)N[C@@H](Cc1ccc(C(=O)O)cc1O)B(O)O [Example 2, (1R)-1-(2-thiophene-2-yl-acetylamino)-2-(2-hydroxy-4-carboxyphenyl)ethyl-1-boronic acid]				100 to 1000		100 to 1000		A (A represents an MIC >8 μg/mL)	10 to 100
O=C(O)COc1cccc(CC(=O)N[C@@H](Cc2cccc(C(=O)O)c2O)B(O)O)c1 [Example 7, (1R)-1-[3-(carboxymethoxy)-phenyl]acetylamino-(3-carboxy-2-hydroxy)benzyl-methylboronic acid]		C (C represents an MIC of <1 μg/mL)		< 10	C (C represents an MIC of <1 μg/mL)	< 10	C (C represents an MIC of <1 μg/mL)		< 10
O=C(Cc1cc(Br)cs1)N[C@@H](Cc1cccc(C(=O)O)c1O)B(O)O [Example 9, (1R)-1-(2-(4-bromo-thiophen-2-nyl)acetylamino)-2-(2-hydroxy-3-carboxyphenyl)ethyl-1-boronic acid]	10 to 100	C (C represents an MIC of <1 μg/mL)		< 10	C (C represents an MIC of <1 μg/mL)	< 10	C (C represents an MIC of <1 μg/mL)		< 10
O=C(CO)N[C@@H](Cc1cccc(C(=O)O)c1O)B(O)O [Example 19, (1R)-1-Hydroxyacetylamino-1-(3-carboxy-2-hydroxy)benzyl-methyl boronic acid]	10 to 100	A (A represents an MIC >8 μg/mL)		100 to 1000	C (C represents an MIC of <1 μg/mL)	10 to 100	C (C represents an MIC of <1 μg/mL)		100 to 1000
CCCCCC(=O)N[C@@H](Cc1cccc(C(=O)O)c1O)B(O)O [Example 21, (1R)-1-Hexanoylamino-(3-carboxy-2-hydroxy)benzyl-methylboronic acid]	< 10	C (C represents an MIC of <1 μg/mL)		< 10	C (C represents an MIC of <1 μg/mL)	< 10	C (C represents an MIC of <1 μg/mL)		< 10
COc1cccc(C(=O)N[C@@H](Cc2cccc(C(=O)O)c2O)B(O)O)c1 [Example 29, (1R)-1-(3-methoxybenzoylamino)-2-(2-hydroxy-3-carboxyphenyl)ethyl-1-boronic acid]	< 10	C (C represents an MIC of <1 μg/mL)		< 10	C (C represents an MIC of <1 μg/mL)	< 10	C (C represents an MIC of <1 μg/mL)		10 to 100
NCCC(=O)N[C@@H](Cc1cccc(C(=O)O)c1O)B(O)O.O=CO [Example 38, (1R)-1-(3-aminopropanoylamino)-2-(2-hydroxy-3-carboxyphenyl)ethyl-1-boronic acid formate salt]	100 to 1000	A (A represents an MIC >8 μg/mL)	> 1000	100 to 1000	C (C represents an MIC of <1 μg/mL)	100 to 1000	A (A represents an MIC >8 μg/mL)		
NCc1cccc(C(=O)N[C@@H](Cc2cccc(C(=O)O)c2O)B(O)O)c1.O=CO [Example 42, (1R)-1-(3-aminomethyl)-benzoylamino-1-(3-carboxy-2-hydroxy)benzyl-methyl boronic acid formate]	10 to 100		100 to 1000	< 10	C (C represents an MIC of <1 μg/mL)	< 10		C (C represents an MIC of <1 μg/mL)	
O=C(O)c1cccc(C[C@H](NC(=O)c2c(Cl)cccc2Cl)B(O)O)c1O [Example 43, (1R)-1-(2,6-Dichlorobenzoyl)-amino-1-(3-carboxy-2-hydroxy)benzyl-methylboronic acid]	10 to 100	A (A represents an MIC >8 μg/mL)	> 1000	< 10	A (A represents an MIC >8 μg/mL)	10 to 100	A (A represents an MIC >8 μg/mL)		
Cn1nc(-c2ccccc2)cc1C(=O)N[C@@H](Cc1cccc(C(=O)O)c1O)B(O)O [Example 44, (1R)-1-(1-methyl-3-phenyl-1H-pyrazole-5-carbonyl-amino)-2-(2-hydroxy-3-carboxyphenyl)ethyl-1-boronic acid]	10 to 100	A (A represents an MIC >8 μg/mL)	< 10	< 10		< 10	A (A represents an MIC >8 μg/mL)		
Cc1nc(-c2cccc(C(=O)N[C@@H](Cc3cccc(C(=O)O)c3O)B(O)O)c2)no1 [Example 47, (1R)-1-[3-(5-methyl-[1,2,4]oxadiazol-3-yl)-benzoyl]-amino-1-(3-carboxy-2-hydroxy)benzyl-methylboronic acid]	< 10	A (A represents an MIC >8 μg/mL)	10 to 100	< 10		< 10	A (A represents an MIC >8 μg/mL)		
O=C(Cc1cccnc1)N[C@@H](Cc1cccc(C(=O)O)c1O)B(O)O.O=CO [Example 59, (1R)-1-(3-Pyridylacetylamino)-2-(2-hydroxy-3-carboxyphenyl)ethyl-1-boronic acid formate salt]	< 10	C (C represents an MIC of <1 μg/mL)	< 10	< 10	C (C represents an MIC of <1 μg/mL)	< 10	C (C represents an MIC of <1 μg/mL)		
O=C(O)c1cccc(C[C@H](NC(=O)[C@@H]2CCCN2)B(O)O)c1O.O=CO [Example 64, (1R),(2′S)-1-(pyrrolidine-2-carbonylamino)-2-(2-hydroxy-3-carboxyphenyl)ethyl-1-boronic acid formate]	100 to 1000	A (A represents an MIC >8 μg/mL)	> 1000	10 to 100	C (C represents an MIC of <1 μg/mL)	100 to 1000	A (A represents an MIC >8 μg/mL)		
